Ends that are not written are not given here.
B1: Activin A: Recombinant Activin A, media additive (protein, UniProt P08476 311-426, looked up)
Inhibin beta A chain: GLECDGKVNICCKKQFFVSFKDIGWNDWIIAPSGYHANYCEGECPSHIAGTSGSSLSFHSTVINHYRMRGHSPFANLKSCCVPTKLRPMSMLYYDDGQNIIKKDIQNMIVEECGCS

What was measured:
[1] = tested on: pluripotent stem cells; assay: qPCR gene expression, early eye field differentiation, day 4; assay type: cell-based, human; settings: for expression of early neural/early eye field marker Lhx2 / expression of early neural/early eye field marker Rax / expression of the pluripotency genes Oct4 and Nanog: day 4, added to IGF1, Noggin, Dkk1 and bFGF, compared with controls; for expression of the pluripotency genes Oct4 and Nanog: 10 mM nicotinamide or 5 mM 3-aminobenzamide
Procedure: (§1) Pluripotent stem cells were passaged directly onto Matrigel (BD Biosciences) in DMEM/F12 with 1×B27, 1×N2, and 1×NEAA (Invitrogen). From days 0 to 2, 50 ng/ml Noggin, 10 ng/ml Dkk1, and 10 ng/ml IGF1 (R&D Systems Inc., Minneapolis, Minn., http://www.rndsystems.com) and in some experiments 10 mM nicotinamide or 5 mM 3-aminobenzamide (Sigma-Aldrich) were added to the base medium. From days 2 to 4, 10 ng/ml Noggin, 10 ng/ml Dkk1, 10 ng/ml IGF1, and 5 ng/ml bFGF and in some experiments 10 mM nicotinamide or 5 mM 3-aminobenzamide were added to the base medium. From days 4 to 6, 10 ng/ml Dkk1 and 10 ng/ml IGF1 and in some experiments 100 ng/ml Activin A (R&D Systems) were added to the base medium. From days 6 to 14, 100 ng/ml Activin A, 10 μM SU5402 (EMD Millipore, Darmstadt, Germany, http://www.emdmillipore.com), and […] VIP (Sigma-Aldrich) were added to the base medium. Control experiments were also performed in base media alone (DMEM/F12, B27, N2, and NEAA).
(§2) Quantitative Real-Time Polymerase Chain Reaction Total RNA of RPE marker genes was isolated using primers based upon the mRNA sequences of such genes. QPCR methods were carried out with the RNeasy Plus Mini Kit (Qiagen, Hilden, Germany, http://www.qiagen.com). cDNA was synthesized from 1 μg of RNA using the iScript cDNA Synthesis Kit (Bio-Rad, Hercules, Calif., http://www.bio-rad.com). Primer pairs were designed to create a 75-200-base pair product (Beacon Design 4.0; Premier Biosoft International, Palo Alto, Calif., http://www.premierbiosoft.com). Quantitative real-time polymerase chain reaction (PCR) was carried out on a Bio-Rad MyIQ Single Color Real-Time PCR Detection System using the SYBR Green method, as described in Woo T H, Patel B K, Cinco M et al. Identification of Leptospira biflexa by real-time homogeneous detection of rapid cycle PCR product. J Microbiol Methods 1999; 35:23-30. Triplicate 20-μl reactions were run in a 96-well plate with half of the cDNA synthesis reaction used per plate. Primer specificity was confirmed by melting temperature analysis, gel electrophoresis, and direct sequencing (Iowa State DNA Facility, Ames, Iowa). The data were normalized to the geometric mean of the “housekeeping” genes: glyceraldehyde phosphate dehydrogenase (GAPDH), hydroxymethylbilane synthase (HMBS), and glucose phosphate isomerase (GPI), as described in Radeke M J, Peterson K E, Johnson L V et al. Disease susceptibility of the human macula: Differential gene transcription in the retinal pigmented epithelium/choroid. Exp Eye Res 2007; 85:366-380.

[2] = tested on: early eye field cells; assay: Pigmentation of differentiating cultures; assay type: cell-based, human; settings: cultures containing VIP, between days 10 and 14
Procedure: as §1

[3] = tested on: early eye field cells; assay: qPCR gene expression, RPE specification of early eye field cells, day 10; assay type: cell-based, human; settings: for gene expression of Mitf / expression of Rax: day 10; for gene expression of Mitf: Activin A added days 4-10, SU5402 or VIP days 6-10
Procedure: as §1, §2

[4] = molecular target: PKC; settings: cited from earlier work
[5] = tested on: dissociated RPE; assay: Rescue of RPE after single-cell dissociation on day 14; assay type: cell-based, human; settings: 10 μM for the first 3 days after passage
Procedure: The cells were mechanically enriched by scraping away cells with non-RPE morphology. Subsequently, the remaining RPE were digested using TrypLE Express (Invitrogen) for ˜5 minutes at 37° C. The cells were passed through a 30-μm single-cell strainer and seeded onto Matrigel-coated tissue culture plastic, Transwell membranes (Corning Enterprises, Corning, N.Y., http://www.corning.com), or CC2-treated chambered slides. Enriched cells were cultured in DMEM-high glucose with 1% fetal bovine serum (FBS), GlutaMAX, and sodium pyruvate (Invitrogen) for 30 days, as described in Ahmado A, Carr A J, Vugler A A et al. Induction of differentiation by pyruvate and DMEM in the human retinal pigment epithelium cell line ARPE-19. Invest Ophthalmol Vis Sci 2011; 52:7148-7159.
Differentiated Cells Can Be Enriched on Day 14 to Homogenous Cultures of Functional RPE. To generate more homogenous populations of RPE, readily visible sheets on day 14 were mechanically isolated, dissociated into single cells, and replated in an RPE medium described in Buchholz D E, Hikita S T, Rowland T J et al. Derivation of functional retinal pigmented epithelium from induced pluripotent stem cells. STEM CELLS 2009; 27:2427-2434, on Matrigel-coated tissue culture plastic, chambered slides, or Transwell inserts. […]

[6] = molecular target: myosin light-chain kinase; settings: cited from earlier work
[7] = molecular target: cAMP-dependent protein kinase; settings: cited from earlier work
[8] = tested on: pluripotent stem cells; assay: Cell morphology during early eye field differentiation; assay type: cell-based, human; settings: compared with control cells
Procedure: as §1

[9] = Activin A added days 4-10, SU5402 days 6-10

Molecule	expression of early neural/early eye field marker Lhx2 [1]	expression of early neural/early eye field marker Rax [1]	expression of the pluripotency genes Oct4 and Nanog [1]	gene expression of Mitf [3]	expression of Rax [3, 9]	also measured
NC(=O)c1cccc(N)c1 [3-aminobenzamide]	significantly increased	significantly increased	reduced	–	–	ability to recapitulate the effects of nicotinamide ([1]; day 4, overall): partially recapitulate the effects of nicotinamide
VIP: vasoactive intestinal peptide, a cyclic AMP upregulator (HSDAVFTDNYTRLRKQMAVKKYLNSILN; ends and bridges not checked; UniProt P01282 125-152, looked up)	–	–	–	significantly increased	–	pigmentation [2]: increased; expression of RPE marker gene PEDF ([3]; VIP added days 6-10): significantly increased; expression of RPE marker gene tyrosinase ([3]; VIP added days 6-10): significantly increased
Cc1c[nH]c(/C=C2\C(=O)Nc3ccccc32)c1CCC(=O)O [SU5402]	–	–	–	little effect	little effect	expression of Rax ([3]; SU5402 in combination with Activin A): further decreased
C[C@@H](N)[C@H]1CC[C@H](C(=O)Nc2ccncc2)CC1 [Y-27632]	–	–	–	–	–	Ki [4]: […]; RPE survival and maturation after single-cell dissociation [5]: […]; Ki [6]: > 250 µM; Ki [7]: 25 µM
NC(=O)c1cccnc1 [nicotinamide]	increased	the increase in Rax was not significant	significantly decreased	–	–	Pax6(−5a) expression ([1]; day 4, nicotinamide against control conditions): similar; cell morphology [8]: rapidly adopted a radial/rosette morphology
B1	–	–	–	little effect	significantly decreased	–

— patent publication US9458428B2, “Methods and compositions for the rapid production of retinal pigmented epithelial cells from pluripotent cells” (The Regents of the University of California, priority 2012, dated 2016)
